Measurements from US20250297998A1, “SYSTEM AND METHODS FOR MEASURING AIRBORNE GLYCOL” (Grignard Pure LLC, priority 2022, published 2025).

Experiments:
[1] = ASTM D445 kinematic viscosity; type: physicochemical
Description: (§1) As a non-limiting example, the sanitizing formulation can include 52.25% TEG by weight, 1.00% PG by weight, and 46.75% water (e.g., deionized water) by weight. The properties of this particular example of the sanitizing formulation (and pure TEG as a comparative reference) is summarized in the table below

[2] = ASTM D323 vapor pressure; type: physicochemical; conditions: @ 20° C.
Description: as §1

[3] = ASTM D117 freeze point; type: physicochemical
Description: as §1

[4] = PLTL-15 Odor Test; type: physicochemical
Description: as §1

[5] = cited from earlier work
[6] = ASTM D93 flash point; type: physicochemical
Description: as §1

[7] = ASTM D1120 boiling point; type: physicochemical
Description: as §1

[8] = Visual appearance and odor; type: physicochemical
Description: as §1

[9] = ASTM D4052 specific gravity; type: physicochemical
Description: as §1

Viscosity, Kinematic @ 40° C. [1]: 42.3 cSt | Vapor Pressure (psi) [2]: 0.0 psi @ 20 °C | Freeze Point ° C. [3]: −7.0° ° C. | Odor Test [4]: No Odor | Flash Point (° C.) [6]: 157° ° C. | Boiling Point (° C.) [7]: 285° ° C. | Appearance and Odor [8]: Clear/Uniform | Specific Gravity @ 20° C. [9]: 1.12-1.13
Structure (SMILES): OCCOCCOCCO [Pure TEG, triethylene glycol]
flash point ([5]; TEG alone, flammable liquid): 157 °C | boiling point ([5]; at a pressure of 101.325 kPa): 286.5 °C
